Measurements reported in paper PMC7331992, “Targeting the oral plaque microbiome with immobilized anti-biofilm peptides at tooth-restoration interfaces” (PLoS ONE, 2020).
Square brackets hold non-standard residues; d marks the D form. Ends that are not written are not given here. Peptide text beside a SMILES is read from it.

How the values were obtained:
[1] = tested on: #311 plaque sample; settings: cultures of highly adherent #311 plaque sample; several batches; n = 3; Fig 2C; cited from earlier work
Method: MICs of D-GL13K against cultures of all 10 plaque biofilm samples were in the range 1–4 μg/ml (Fig 2A). […] Potency of the rest of AAMPs candidates was tested against cultures of the highly adherent #311 sample. […] The controls, scrambled amino acid versions of D- ...

[2] = tested on: #311 plaque biofilm; settings: Fig 2B, cited from earlier work
Method: MICs of D-GL13K against cultures of all 10 plaque biofilm samples were in the range 1–4 μg/ml (Fig 2A). […] Potency of the rest of AAMPs candidates was tested against cultures of the highly adherent #311 sample. […] However, biofilms show increased resistance to antimicrobial agents than suspension cultures.

[3] = tested on: plaque biofilm microbial community; experiment: 16S rRNA gene sequencing of plaque biofilm community on AAMPs-coated HA discs; assay type: cell-based, plaque bacteria (human subject)
Method: PMA treatment was conducted for selective detection of viable bacteria. Prior to DNA extraction, the collected 1ml of bacterial cells was sub-divided into 0.5ml with PMA and the other 0.5ml without PMA treatment for each sample for fulfilling a pairs-matched statistical design (S1 Fig in S1 File). PMA was added to the assigned samples for a final concentration of 50 μM. The samples were incubated in the dark for 10 minutes on a shaker at room temperature. The samples were exposed to a PMA-Lite LED photolysis device light (Biotium, Fremont, CA, USA) to cross-link PMA to DNA for 15 minutes. Cells were pelleted by centrifuging at 5000x g for 10 minutes in preparation for genomic DNA extraction.
Genomic DNA was extracted from all samples; i.e., PMA and non-PMA treated bacteria. The protocol amended from Epicentre MasterPure™ DNA Purification Kit and Epicentre MasterPure™ Gram Positive DNA Purification Kit was followed (http://homings.forsyth.org/DNA%20Isolation%20Protocol.pdf, last access 03/31/2020).
The extracted DNA was submitted to the University of Minnesota Genomics Center for dual-indexed 16S rRNA gene amplicon sequencing using the V3-V4 region on the Illumina MiSeq platform 300PE.
Primers where removed with FilterandTrim, paired reads were merged with mergePairs, Bimeras where removed in with removeBimeraDenovo, and Silva version 132 was used for taxonomy identification. Sequences with a length < 251 and > 255 were removed as well as sequences with a total read count across all samples equal to 1. Further analysis of the ASV table was performed in R with the vegan, reshape2, ggplot2, grid, gridExtra, plyr, dplyr packages. The alpha diversity indices of Shannon, Simpson, Inverse Simpson (InvSympson) were calculated at 97% identity. Beta diversity analysis was performed by principal coordinates analysis (PCoA) based on Bray-Curtis distances at the Operational Taxonomic Unit (OTU) level. […]

[4] = tested on: plaque biofilm along dentin-composite interface; experiment: Multiphoton live/dead bioimaging of plaque biofilm along dentin-composite interfacial gap; assay type: cell-based, plaque bacteria (human subject); bovine dentin; settings: D-GL13K-coated dentin
Description: Roots of bovine teeth were used to prepare restored dentin-composite discs (Fig 1). After the crowns and apical thirds of each tooth were cut off, the root canals were enlarged to 2 mm in diameter, using 1.9-mm diameter fiber post drills (RelyX™ Fiber Post, 3M, St. Paul, MN, USA). The outer surface of the roots was trimmed down to 5 mm in diameter using a lathe to remove cementum and external layers of dentin. The obtained dentin tubes (5 mm in outer diameter and 2 mm in inner diameter) were water rinsed and stored in 0.5 chloramine T solution at 4 °C until the restorative procedures were performed. […]
Multiphoton images were acquired in a Multiphoton upright microscope equipped with an A1R laser scan head (Nikon FN1, Tokyo, Japan). […] Multiphoton excitation fluorescence was collected in the epi direction in the green (470–550) and orange-red (570–640) channels. […] Images were compiled and analyzed with NIS Elements software (Version 4.11.0, Nikon, Tokyo, Japan).
Quantification of red and green cells was done by standard co-localization analysis using Fiji image processing package. The percentage of red cells, which is usually associated to dead cells was calculated as: deadcells%=(totalvolumeofredcells/totalvolumeofcells)x100

[5] = tested on: supragingival dental plaque samples from 10 high caries risk subjects; assay type: cell-based, plaque bacteria (human subjects); settings: 24 h
Description: After a written informed consent was obtained from all participants, supragingival dental plaque samples from 10 high caries risk subjects were collected from either the occlusal or buccal margin of existing restorations at the University of Minnesota (Institutional Review Board #1403M48865). Each subject was examined for a formal caries risk assessment (CAMBRA) which classifies the caries risk status into 3 categories (low, moderate, high) considering a wide-range of biological predisposing factors and the protective factors, 8 factors each, in addition to the comprehensive clinical examination. All subjects had experienced active carious lesions and were still at high risk for future caries; otherwise, they were in good general health and had not taken antibiotics within 3 months of plaque sampling.
All dental plaque samples were collected using a sterile sickle scaler, and each sample was immediately deposited into a vial containing 1 ml pre-reduced anaerobic transfer medium (Anaerobe Systems, Morgan Hill, CA, USA). […] After 24 h of peptide treatment, absorbance at 600 nm was measured using a microtiter plate reader (Bio-Tek Instruments, Winooski, VT, USA). Plaque sample #311 was challenging in the planktonic state and, additionally, it formed the highest adherent biofilm using the Crystal Violet assay as measured by Dr. Robert S. Jones lab (data not shown). […]

[6] = tested on: #311 plaque biofilm; experiment: Live/dead viability assay of plaque biofilms on peptide-coated HA discs; assay type: cell-based, plaque bacteria (human subject)
Method: Hydroxyapatite (HA) discs (9.65 mm diameter by 1.52 mm thickness; Clarkson Chromatography Products, Williamsport, PA, USA) were sterilized by autoclaving to be used as plaque biofilm substrates. Both sides of each disc were etched by 32% phosphoric acid gel (Scotchbond™ Universal Etchant, 3M, St. Paul, MN, USA) for 15 s followed by 10 s water-rinse and 10 s air-dry. The discs were coated, incubated with a thin layer of peptide solution at 37 °C for 1 min, by 1 mg/ml of either D-GL13K or 1018 or DJK2 followed by 60 s air-dry. The control discs were etched, but were not coated with peptides. All samples were subject to ultrasonication in water bath for 15 min to remove any unattached peptides. X-ray Photoelectron Spectroscopy (XPS; SSX-100, Surface Science Laboratories; Al Kα X-ray, 1 mm spot-size, 35° take-off angle) was used to detect the atomic composition of the coated surfaces. […]
Working solution of fluorescent stains (L7012, LIVE/DEAD BacLight Bacterial Viability Kit, ThermoFisher Scientific, Waltham, MA, USA) was prepared by adding 3 μl of SYTO® 9 (live cell stain) and 3 μl of Propidium iodide (PI, dead cell stain) to 1 ml of sterilized Milli-Q® ultrapure water. […] The regrown biofilms were re-assessed using the same Live/Dead assay.

Row | Compound | MIC [1] [µg/mL] | inhibition of #311 plaque biofilm ([2]; 25 μg/ml D-GL13K, 6-day-old biofilm) | suppression of biofilm biovolume compared to controls ([2]; highly adherent plaque biofilm) [%] | bacterial community richness (Shannon index) compared to controls ([3]; 48-h biofilm on coated HA discs, genus level) | abundance of less abundant taxa Actinomyces and Gemella compared to controls ([3]; ANCOM, coated HA discs) | number and relative abundance of Streptococcus and Veillonella combined versus controls ([3]; Shannon, Simpson, InvSimpson indices, coated HA discs) | antibiofilm potency on 18-day-old interfacial plaque biofilm ([4]; 18-day-old biofilm, 3D rendering) | Percentage of dead cells ([4]; interfacial 9-day-old biofilm, average ± SD, n=6, control 31.5%± 8%, p = 0.018) | MIC [5] [µg/mL] | live/dead assay, effect on bacteria ([6]; D-GL13K-coated HA discs, 48 h biofilm growth) | antibiofilm activity of challenged coatings ([6]; coating challenged by 45 min ultrasonication or 45 min 30% acetic acid (pH 2.4), biofilms regrown 5 and 15 days)
1 | L-GL13K: antimicrobial amphipathic peptide GL13K, L-amino acids (GKIIKLKASLKLL; not fully specified (C-terminus)) | 8 | – | – | – | – | – | – | – | – | – | –
2 | CC[C@@H](C)[C@@H](NC(=O)[C@@H](CCCCN)NC(=O)CN)C(=O)N[C@@H](C(=O)N[C@H](CCCCN)C(=O)N[C@H](CC(C)C)C(=O)N[C@H](CCCCN)C(=O)N[C@H](C)C(=O)N[C@H](CO)C(=O)N[C@H](CC(C)C)C(=O)N[C@H](CCCCN)C(=O)N[C@H](CC(C)C)C(=O)N[C@H](CC(C)C)C(N)=O)[C@H](C)CC [D-GL13K] (H-G[dK][dI][dI][dK][dL][dK][dA][dS][dL][dK][dL][dL]-NH2; N-terminus and C-terminus assumed) | 1 to 2 | around 4 fold | > 70 | significantly reduced | significant reduction | significant reduction | maintained their antibiofilm potency | 60% ± 10% | 1 to 4 | uniform and marked loss of the integrity of bacterial membranes | sustained antibiofilm activity
